Results as given in a melting point compilation (Tetko et al.; mined from patent text by program, amines drawn as free bases though some values may be those of a salt).

| SMILES | melting point |
| --- | --- |
| CCOC(=O)c1c(O)c(O)c(C(=O)OCC)n1Cc1ccccc1 | 144 to 145 °C |
| CC(C)(CO)NS(=O)(=O)c1cccc(NC(=O)c2cnn3c(C(F)(F)F)cc(-c4ccc(OC(F)(F)F)cc4)nc23)c1 | 212 °C |
| O=c1c2ccccc2sc2ccc(S(=O)(=O)C(F)(F)F)cc12 | 163 to 164 °C |
| COc1cccc2c(=O)c(O)coc12 | 180 to 183 °C |
| Cc1cccc(C(=O)Nc2c[nH]nc2C(=O)NCCF)n1 | 220 to 221 °C |
| CN(C)c1ccc(C(O)C#Cc2ccc(C(=O)O)cc2)cc1C(C)(C)C (stereo unspecified) | 139 °C |
| CCC(=O)N(CC)c1cccc(-c2ccc3nnc(NC)n3n2)c1 | 172 to 173 °C |
| COc1ccc2c(c1)OC(C)(C)CC2=O | 77 to 78 °C |
| C[Si](C)(C)CC(C#N)CC(=O)O (stereo unspecified) | 39 to 41 °C |
| CCOC(=O)c1nnc(-c2ccc(S(C)=O)cc2)o1 (stereo unspecified) | 129 to 131 °C |
| CCOC(=O)Cc1ccc(N(C)c2nc(=O)c3cccnc3s2)cc1 | 156 to 159 °C |
| COC(=O)c1cncn1C(c1ccccc1)c1ccccn1 (stereo unspecified) | 96.3 °C |
| CN(C)c1cccc(Oc2cccc(Cl)n2)c1 | 71 to 72 °C |
| Cc1ccc(-c2ccc(S(=O)(=O)Nc3cc(C)no3)cc2)cc1 | 194 to 198 °C |
| CCCN(C)C(C)CN1CCc2c(c(=O)oc3cc(OC)ccc23)C1 (stereo unspecified) | 69 to 71 °C |
| CN(C)CCCNC(=O)c1ccc(/C=C/c2ccc3c(=O)[nH]ncc3c2)cc1 | 287 °C |
| C=CCNCc1noc(-c2ncn3c2CN(C)C(=O)c2c(Cl)cccc2-3)n1 | 171 to 174 °C |
| CCOC(=O)/C(=N\O[C@H]1CCC[C@@H](C)C1)c1csc(N)n1 (relative stereo) | 91 to 93 °C |
| CCOC(=O)c1cc2oc3c(n2n1)CCCC3 | 55 to 57 °C |
| CCn1c(=O)c2[nH]c(/C=C/c3ccc(OC)c(OC)c3)nc2n(CC)c1=O | 208 to 211 °C |
| COc1cccc2c1OC(CN1CCC(CNC(=O)c3cccnc3N)CC1)CO2 (stereo unspecified) | 57 to 60 °C |
| Nc1cc(N2CCCCC2)ccc1[N+](=O)[O-] | 100 to 101 °C |

| SMILES | melting point |
| --- | --- |
| CSCCn1nc(O)c2[nH]c3cc(Cl)ccc3c(=O)c2c1=O | 275 to 277 °C |
| Cc1ccc2c(c1)C=Cc1cc(C)ccc1C2c1cn(Cc2nc(C(=O)O)cs2)c(=O)[nH]c1=S | 200 to 205 °C |
| CC(=O)Nc1cccc(-n2ncc(=O)n(Cc3ccc(Cl)cc3F)c2=O)c1 | 184 °C |
| NC(=O)Cc1ccc2c(c1)C(=O)c1ccccc1CO2 | 157 to 158 °C |
| COc1ccc(C2(O)CCN(Cc3ccccc3)CC2)cc1OC | 112 to 114 °C |
| COC(=O)C1CN(C(=O)c2ccc(OC(F)(F)F)cc2)c2cc(Cl)ccc2CN1S(=O)(=O)c1ccc(OC)cc1 (stereo unspecified) | 149 to 151 °C |
| COc1c(NC(=O)c2ccc(C)c(-n3cc(C(=O)Cl)nn3)c2)cc(C(C)(C)C)cc1NS(C)(=O)=O | 205 to 207 °C |
| CN(C(=O)Nc1ccc(Cl)c(Cl)c1)S(=O)(=O)C(C)(C)C | 116 °C |
| N#Cc1ccc(CN2CCN(c3ccncc3)CC2)cc1 | 137 to 138 °C |
| Cc1ccc(C)c(OCCCC(=O)O)c1 | 63 to 65 °C |
| CCCCn1c(CC)ccc1Cc1cccc(NC(N)=O)c1 | 103 to 106 °C |
| COCCOCc1ccc(C#CC2(O)CN3CCC2CC3)c(F)c1 (stereo unspecified) | 117 to 118 °C |
| CCCn1c(=O)c(C(=O)OCC)c(N2CCN(C(=O)c3cccs3)CC2)c2cccnc21 | 92 to 96 °C |
| COc1cn(-c2ccc(N3CCN(C)C3=O)cc2F)nc(-c2ccnn2-c2ccccc2)c1=O | 208 to 209 °C |
| CCOC(=O)c1c(SCc2ccc(OC)cc2)nc2c(F)c(F)c(F)cc2c1O | 174 to 176 °C |
| N#Cc1ccc2[nH]cc(C3=CCC4(CC3)OCCO4)c2c1 | 158 to 160 °C |
| Cc1ccc(Br)c(S(=O)O)c1 | 120 to 122 °C |
| CC(=Cc1ccc(C(F)(F)F)cc1)C1OCC(S(=O)Cc2ccc(Cl)cc2)CO1 (stereo unspecified) | 192 to 194 °C |
| N#CC1CCc2c(C(=O)O)cccc21 (stereo unspecified) | 206 to 208 °C |
| CC(C)(C)c1cc(Nc2cccc(OCC(=O)O)c2)cc(C(C)(C)C)c1O | 127 to 128 °C |
| OCc1cc(N2CCOCC2)c(F)cn1 | 134 to 136 °C |

Now from value to compound:

| melting point | SMILES |
| --- | --- |
| 109 to 110 °C | CCOC(=O)c1c(Cn2cncn2)nc2sc(C)c(C)c2c1-c1ccc2c(c1)OCO2 |
| 213 to 215 °C | Cc1noc(C)c1Cn1cc(N2C(=O)N(Cc3cc(O[Si](C)(C)C(C)(C)C)cc(O[Si](C)(C)C(C)(C)C)c3)C(C)(C)C2=O)cn1 |
| 180 °C | O=C(NCC(=O)N(c1ccccc1)c1ccccc1)Nc1cccc([N+](=O)[O-])c1 |
| 114 to 117 °C | CCOC(=O)CSc1nc(Cl)c(C)c(NCc2ccc(Cl)cc2)n1 |
| 182 to 184 °C | Cc1ccc(Oc2c(C)c(NC(=O)CC(C)(C)C)c(C)c3c2OC(C)(C)C3)cc1 |
| 149 to 152 °C | CCC(=O)NC1Cc2cccc3c2N(CCC3)C1=O (stereo unspecified) |
| 102 to 103 °C | CNC1=NN(C(=O)C(C)(C)C)C(C)S1 (stereo unspecified) |
| 93 to 96 °C | CC(=O)Oc1ccccc1C1SC[C@@H](C(=O)O)N1C(=O)CCSC(=O)c1ccc(C)cc1 (stereo partly specified) |
| 148 to 149 °C | Fc1ccc(-c2nc(=S)c3c(o2)CCCC3)cc1 |
| 201 to 203 °C | COc1ccc(-c2c(Cl)c(Cn3cnc4ccccc43)nc3sc4c(c23)CCSC4)cc1 |
| 165 to 168 °C | CSCc1ccc(NC(=O)/C=C/c2cnn(C)c2-c2ccc(F)cc2)cc1 |
| 110 to 112 °C | O=C1NNC2=CC(=O)N(c3ccccc3)c3cc(Cl)ccc3N12 |
| 198 to 200 °C | O=c1[nH]ncc(Cl)c1NCCCN1CCC(c2noc3cc(F)ccc23)CC1 |
| 151 °C | COc1cc2c(cc1C(=O)O)OCO2 |
| 103 to 105 °C | CCCCOC(=O)Cc1ccc(N2CCN(CCc3cc(C(C)(C)C)c(O)c(C(C)(C)C)c3)CC2)cc1 |
| 91 °C | N#Cc1nn(Cc2ccccc2)c2ccccc12 |
| 252 °C | N=C(NO)c1cnn2c(C(F)(F)F)cc(-c3ccc(C(F)(F)F)cc3)nc12 |
| 155 to 156 °C | NC(=O)NC[C@@H]1CCCc2cc(S(=O)(=O)c3cccc(F)c3)ccc21 |
| 159 to 160 °C | COC(=O)C1=C(C)NC(C)=C(C(=O)OCCN2CCC(c3ccccc3)CC2)C1c1cccc([N+](=O)[O-])c1 (stereo unspecified) |
| 90 to 91 °C | Clc1cc(CCc2ccccn2)c2oc(-c3cccs3)nc2c1 |

| melting point | SMILES |
| --- | --- |
| 114 to 116 °C | CCNC(=O)c1ccsc1[Si](C)(C)C |
| 44 to 47 °C | CC(=O)OCCC1CC(=O)N1 (stereo unspecified) |
| 62 to 65 °C | COc1ccc(C(=O)C(CCC(C)=O)c2ccc(OC)cc2)cc1 (stereo unspecified) |
| 92 °C | COC(=O)Cc1cc([N+](=O)[O-])ccc1OC |
| 107 to 109 °C | COC(=O)CC/C(C)=C/Cc1c(NC(=O)C(F)(F)F)c2c(c(C)c1OC)COC2=O |
| 195 to 197 °C | O=C(O)c1cc(Br)c(O)c(Br)n1 |
| 134 to 137 °C | CCCCCCSc1sc(-c2cc[nH]n2)c2c1C(=O)CC(C)(C)C2 |
| > 200 °C | CC(=O)Nc1nc(N2CCc3ccccc3CC2)c([N+](=O)[O-])c(=O)[nH]1 |
| 190 °C | Cn1ncnc1COc1nc2c(-c3c(F)cccc3F)nncn2c1-c1ccccc1 |
| 169 to 172 °C | CC1SC(=O)NN=C1c1cccc([N+](=O)[O-])c1 (stereo unspecified) |
| 217 to 218 °C | COc1ccc2[nH]c(CC(C)C)c(/C=C/C(=O)c3ccncc3)c2c1 |
| 225 °C | CCNc1ccc2c(c1)Cc1c-2[nH]c2ccccc12 |
| 174 to 177 °C | COc1c(C(N)=O)oc2c3ccccc3n(C)c12 |
| 195 °C | Cn1cc(-c2cc(-c3cnc(N)c(C(F)(F)F)c3)ccn2)n(-c2ccc(C(C)(C)C#N)cc2)c1=O |
| 256 to 258 °C | Nc1n[nH]c2nc(C3CC3)cc(-c3ccc(Cl)c(Cl)c3)c12 |
| 238 to 241 °C | CCN1CCCc2cc(C=C3SC(=O)NC3=O)ccc21 |
| 95 to 97 °C | NS(=O)(=O)Oc1ccc([N+](=O)[O-])c(C(F)(F)F)c1 |
| > 220 °C | C=Cc1cc2c(c3ccc(O)cc13)OCc1cc(O)ccc1-2 |
| 151 to 152 °C | CC(=O)Nc1ccc(S(=O)(=O)CC(=O)C23CC4CC(CC(C4)C2)C3)cc1 |
| 135 to 137 °C | NCCC(=O)N(N)S(=O)(=O)c1ccccc1 |

| melting point | SMILES |
| --- | --- |
| 84 to 85.5 °C | Cc1ccc(C(=O)c2ccc(C)cc2F)c(F)c1 |
| 212 °C | CCOC(=O)C1=CC(C(=O)c2ccccc2O)=CN2CCc3c([nH]c4ccc(OC)cc34)C12C(=O)OCC (stereo unspecified) |
| 121 to 122 °C | Cc1ccc(C2COc3c(C)c(C)c(N)c(C)c32)cc1 (stereo unspecified) |
| 171 to 172 °C | O=S1(=O)CCCS(=O)(=O)N1F |
| 118 to 120 °C | O=C(O)CC(C1CCCCC1)C1CCCCC1 |
| 118 to 119 °C | COC(=O)c1c(-c2ccc(F)cc2)c2cc(OCc3ccccc3)ccc2c(=O)n1CC(C)C |
| 88 °C | CCCC(CC(=O)Nc1ccccc1)(OC)OC |
| 72 to 74 °C | CC(CO)(Cc1c[nH]c2ccccc12)NC(=O)OC1C2CC3CC(C2)CC1C3 (stereo unspecified) |
| 128 to 129 °C | CCCC(C(C)=CC(CNC(=O)Cc1cccnc1)=NO)[N+](=O)[O-] (stereo unspecified) |
| 202 to 203 °C | CN1C(=O)c2ccccc2CC12c1ccccc1C(=O)N2C (stereo unspecified) |
| 262 °C | NS(=O)(=O)c1ccc(-c2cc(-c3nc(-c4ccc(C(F)(F)F)cc4)cc(C(F)(F)F)n3)ccn2)s1 |
| 235 to 237 °C | CCc1nc(N)nc(N)c1-c1ccc(N(C)Cc2ccc(C(=O)NC)cc2)c([N+](=O)[O-])c1 |
| 112 to 116 °C | NS(=O)(=O)c1sccc1C(F)=C(F)Cl |
| 192 to 200 °C | CS(=O)(=O)Nc1ccc(S(=O)(=O)N2CCNc3nc4ccccc4n3CC2)cc1 |
| 96 to 98 °C | c1ccc(CN2CCN(Cc3ccccc3)C(CCc3ccncc3)C2)cc1 (stereo unspecified) |
| 115 to 116 °C | CC(=O)c1ccc(-c2ccc(C#N)cc2)o1 |
| 206 to 207 °C | COC1=C(C(=O)c2ccc(C)cc2)C(c2ccc(OC(F)(F)F)cc2)N(c2ccc(C)nn2)C1=O (stereo unspecified) |
| 150 to 152 °C | COc1cc2c(cn1)C(=O)N(C(C)C)C2=O |
